From article PMC8596301 (Frontiers in Pharmacology, 2021)
Like-named read-outs stand apart in the source and are kept apart here.

Columns and labels:
[1] = test system: C57Bl/6 male mice; experiment: Locomotor evaluation (ambulation)
[2] = target: T1, HA-mouse µOR (Mus musculus, UniProt P42866); settings: cited from earlier work
T1 construct: expressed in transfected cells; host or cells: HEK cells (HEK-293), transient, co-transfected with pGloSensor22F

[3] = parameters: method as in Kamble et al., 2021; settings: rats; oral; 1.1 mg∙kg^−1; ref Kamble et al., 2021; cited from earlier work
[4] = test system: C57Bl/6 male mice; experiment: Tail flick thermal nociception assay; assay type: in vivo, mouse
[5] = test system: WT and δOR KO mice; experiment: Seizure assay (modified Racine scale); assay type: in vivo, mouse
Description: To assess drug-induced seizurogenic activity, mice were placed in a clear plastic cylinder (25 cm diameter, 35 cm height) immediately following drug injection and their activity was recorded in a well-lit, quiet room using iSpy camera software (iSpyConnect.com). A recording time of 90 min was chosen for the tested compounds based on previous observations of seizures time lengths in experiments with 30 mg∙kg^−1 paynantheine. If animals were not presenting with seizure activity after 30 min, the recording time was shortened accordingly. Seizure severity was scored based on the modified Racine scale (half-scores allowed) in bins of 3–5 min. Onset to first seizure symptom, onset to highest Racine score, and highest Racine score were also assessed. A summary of all statistical analyses for the seizure data can be found in Supplemental Table S3. In brief, seizure-like behavior between wild type and δOR KO mice was compared with a two-tailed, unpaired t test with Welch’s correction on area under the curve data generated from graphing the highest Racine score per time bin over 90 min for each mouse.

[6] = test system: C57Bl/6 male mice; settings: ref Gutridge et al., 2020; cited from earlier work
[7] = test system: human ORs; parameters: method as in Kruegel et al., 2016; settings: ref Kruegel et al., 2016; cited from earlier work
[8] = test system: wild-type C57Bl/6 mice; settings: 10 and 30 mg∙kg^−1; male mice; ref Gutridge et al., 2020; cited from earlier work
[9] = test system: C57Bl/6 male mice; experiment: Brief and extended conditioned place preference paradigms; assay type: in vivo, mouse
Description: Mice were conditioned to drugs and vehicle as described previously in two-chamber conditioned place preference (CPP) boxes in a counterbalanced, unbiased approach for either two drug conditioning sessions over 2 days (brief) or four drug conditioning sessions over 8 days (extended) ([Váradi et al., 2015]; [Gutridge et al., 2020]). For brief and extended conditioned place preference experiments, separate groups of mice were used for each drug dose. A summary of all statistical analyses for the CPP data can be found in Supplemental Table S4. In brief, all CPP data were analyzed with two-tailed, paired t tests comparing time spent on the drug-paired side pre- and post-conditioning.

[10] = target: κOR (Homo sapiens, UniProt P41145); experiment: biochemical; assay type: binding
Sequence of κOR (P41145 whole entry): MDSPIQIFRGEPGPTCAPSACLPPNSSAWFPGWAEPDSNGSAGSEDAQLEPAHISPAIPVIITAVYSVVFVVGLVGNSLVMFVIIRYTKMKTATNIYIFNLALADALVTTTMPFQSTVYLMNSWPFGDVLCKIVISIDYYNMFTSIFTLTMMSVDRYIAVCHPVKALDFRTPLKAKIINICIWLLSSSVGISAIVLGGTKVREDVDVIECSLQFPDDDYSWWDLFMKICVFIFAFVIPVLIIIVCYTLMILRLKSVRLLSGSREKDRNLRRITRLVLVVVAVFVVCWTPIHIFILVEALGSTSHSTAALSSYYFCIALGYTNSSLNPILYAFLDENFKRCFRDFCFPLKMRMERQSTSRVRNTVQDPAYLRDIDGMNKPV

[11] = test system: δOR KO mice; experiment: Two-bottle choice alcohol paradigm (drinking in the dark, 10% ethanol vs. water); assay type: in vivo, mouse; settings: for Ethanol consumption: δOR KO male mice
Description: (§1) Mice were subject to drinking in the dark (DID), limited access (4 h per day), two-bottle choice (10% ethanol vs. water) paradigm in which they were trained to consume alcohol voluntarily as previously described ([Rhodes et al., 2005]; [van Rijn and Whistler, 2009]). Mice reached stable alcohol consumption within 3 weeks of training, and after the third week, drug injections were administered prior to the daily drinking session on Friday. Drug’s effect on alcohol consumption was measured as the change in Friday’s alcohol intake minus the average alcohol intake from the preceding Tuesday–Thursday of that week (g∙kg^−1). A summary of all statistical analyses for the drinking data can be found in Supplemental Tables S6–S9. In brief, results from two-bottle choice alcohol consumption paradigms were assessed for statistical significance using RM two-way ANOVA for main effects of drug dose, treatment day, and drug dose × treatment day; Sidak’s multiple comparisons (MC) between alcohol consumption baseline (Tuesday–Thursday average) vs. treatment day consumption (Friday) were then used as the post hoc test for each drug dose tested. The same RM two-way ANOVA and Sidak’s MC post hoc analyses were used for water consumption and ethanol preference data. […] Sex differences between baseline data were evaluated using RM two-way ANOVA for main effects of sex, treatment baseline, and sex × treatment baseline; Sidak’s multiple comparisons (MC) between male and female mice were then used as the post hoc test for each treatment week tested.

[12] = target: T2, FLAG-mouse κOR (Mus musculus, UniProt P33534); parameters: method as in Gutridge et al., 2020; settings: cited from earlier work
T2 construct: expressed in transfected cells; host or cells: HEK cells (HEK-293), transient, co-transfected with pGloSensor22F
T2 sequence (P33534 whole entry): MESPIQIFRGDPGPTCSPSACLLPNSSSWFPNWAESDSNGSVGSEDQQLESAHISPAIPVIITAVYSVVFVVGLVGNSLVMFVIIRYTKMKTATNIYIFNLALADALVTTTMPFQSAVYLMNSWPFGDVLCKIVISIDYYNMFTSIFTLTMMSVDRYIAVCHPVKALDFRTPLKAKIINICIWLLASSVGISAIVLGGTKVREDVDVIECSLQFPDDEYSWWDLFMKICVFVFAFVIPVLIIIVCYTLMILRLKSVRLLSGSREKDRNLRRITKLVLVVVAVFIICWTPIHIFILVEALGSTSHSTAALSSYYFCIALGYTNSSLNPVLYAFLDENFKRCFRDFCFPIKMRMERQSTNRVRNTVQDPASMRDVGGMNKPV

[13] = target: T3, FLAG-mouse δOR (Mus musculus, UniProt P32300); parameters: method as in Gutridge et al., 2020; settings: cited from earlier work
T3 construct: expressed in transfected cells; host or cells: HEK cells (HEK-293), transient, co-transfected with pGloSensor22F
T3 sequence (P32300 whole entry): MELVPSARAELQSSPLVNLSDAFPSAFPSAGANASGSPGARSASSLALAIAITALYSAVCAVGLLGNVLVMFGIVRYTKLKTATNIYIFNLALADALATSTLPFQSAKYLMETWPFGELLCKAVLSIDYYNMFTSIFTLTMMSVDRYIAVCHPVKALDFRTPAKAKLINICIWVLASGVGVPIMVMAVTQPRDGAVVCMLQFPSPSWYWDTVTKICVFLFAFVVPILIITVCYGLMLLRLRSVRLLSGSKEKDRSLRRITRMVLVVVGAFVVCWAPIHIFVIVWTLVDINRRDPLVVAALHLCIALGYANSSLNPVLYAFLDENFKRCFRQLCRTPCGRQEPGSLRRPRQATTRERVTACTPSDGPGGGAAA

[14] = target: μOR (Homo sapiens, UniProt P35372); experiment: biochemical; assay type: binding
Sequence of μOR (P35372 whole entry): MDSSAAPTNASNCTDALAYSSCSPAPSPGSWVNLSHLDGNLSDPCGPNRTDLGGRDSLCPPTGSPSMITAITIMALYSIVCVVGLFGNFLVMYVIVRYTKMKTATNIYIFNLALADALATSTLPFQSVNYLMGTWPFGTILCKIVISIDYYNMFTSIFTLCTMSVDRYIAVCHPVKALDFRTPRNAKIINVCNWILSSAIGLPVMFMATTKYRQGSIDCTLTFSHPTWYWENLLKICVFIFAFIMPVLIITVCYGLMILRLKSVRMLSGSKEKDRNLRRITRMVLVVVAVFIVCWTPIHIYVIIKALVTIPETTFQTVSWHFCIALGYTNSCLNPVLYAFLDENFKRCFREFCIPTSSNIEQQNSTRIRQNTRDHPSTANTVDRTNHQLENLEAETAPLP

[15] = target: T3, FLAG-mouse δOR; experiment: cell-based
[16] = Maximum tolerated dose (side effect profile); settings: C57Bl/6, mouse, in vivo, sc, 10 mg∙kg^−1
[17] = target: δOR (Homo sapiens, UniProt P41143); experiment: biochemical; assay type: binding
Sequence of δOR (P41143 whole entry): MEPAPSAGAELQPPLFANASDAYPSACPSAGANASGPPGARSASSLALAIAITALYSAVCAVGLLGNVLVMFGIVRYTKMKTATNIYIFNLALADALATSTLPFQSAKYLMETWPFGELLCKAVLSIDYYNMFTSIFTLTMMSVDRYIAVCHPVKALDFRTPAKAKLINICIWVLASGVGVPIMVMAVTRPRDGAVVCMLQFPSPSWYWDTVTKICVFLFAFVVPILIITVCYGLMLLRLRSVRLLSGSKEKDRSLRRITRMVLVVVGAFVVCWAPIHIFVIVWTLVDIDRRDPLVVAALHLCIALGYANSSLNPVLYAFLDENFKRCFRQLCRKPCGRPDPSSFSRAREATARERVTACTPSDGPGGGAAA

[18] = target: T1, HA-mouse µOR; experiment: cell-based
[19] = test system: wild-type C57Bl/6 mice; experiment: Two-bottle choice alcohol paradigm (drinking in the dark, 10% ethanol vs. water); assay type: in vivo, mouse
Description: as §1

[20] = target: T2, FLAG-mouse κOR; experiment: cell-based
[21] = ref Gutridge et al., 2020, read-out: cAMP IC50
[22] = HEK293, read-out: cAMP α (% inhibition at maximal efficacy)
[23] = 10 mg∙kg^−1 s.c., WT male and female mice
[24] = 7-hydroxyspeciogynine 10 mg∙kg^−1 s.c., WT male mice

T1 sequence (P42866 whole entry): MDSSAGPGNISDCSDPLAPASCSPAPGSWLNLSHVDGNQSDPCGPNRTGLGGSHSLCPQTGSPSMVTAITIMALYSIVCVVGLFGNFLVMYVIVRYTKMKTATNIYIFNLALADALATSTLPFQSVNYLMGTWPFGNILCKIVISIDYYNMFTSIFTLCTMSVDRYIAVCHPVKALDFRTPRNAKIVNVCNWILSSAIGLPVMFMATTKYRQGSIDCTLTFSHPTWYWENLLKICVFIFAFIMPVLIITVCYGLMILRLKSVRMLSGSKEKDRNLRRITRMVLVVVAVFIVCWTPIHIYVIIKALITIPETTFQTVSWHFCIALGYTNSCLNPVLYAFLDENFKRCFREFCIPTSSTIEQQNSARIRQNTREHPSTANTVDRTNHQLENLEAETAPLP

SMILES: C=C[C@H]1CN2CCc3c([nH]c4cccc(OC)c34)[C@@H]2C[C@@H]1/C(=C\OC)C(=O)OC [PAYN, paynantheine]
- Effect on hyperlocomotion induced by 6 mg∙kg^−1 morphine ([1]; 10 and 30 mg∙kg^−1 i.p., data from CPP conditioning sessions): dose-dependently attenuated hyperlocomotion
- cAMP pIC50 [2]: 5.4 ± 0.1
- cAMP α [2]: 100 ± 0
- IC50 ([2]; read-out: cAMP IC50): 4.08 µM
- Detectability in plasma over time [3]: undetectable after an hour
- Tmax in plasma [3]: 10 min
- Block of morphine analgesia ([4]; 10 mg∙kg^−1 i.p., morphine 6 mg∙kg^−1 s.c.): does not block morphine analgesia
- Block of morphine analgesia ([4]; 30 mg∙kg^−1 i.p., morphine 6 mg∙kg^−1 s.c.): blocks morphine analgesia
- Block of antinociception produced by 6 mg∙kg^−1 morphine ([4]; 10 and 30 mg∙kg^−1 i.p., 10 min before morphine s.c.): dose-dependently blocked antinociception
- Antinociceptive effect (agonist mode, %MPE) ([4]; 10 and 30 mg∙kg^−1 i.p., 30 min): neither the 10 nor 30 mg∙kg^−1 dose displayed meaningful antinociceptive effects
- Convulsive behaviors, Racine level ([5]; 30 mg∙kg^−1 i.p., wild type and δOR KO mice): 1–2
- Hyperlocomotion at effective dose [6]: does not produce hyperlocomotion
- Functional activity at human ORs [7]: weak antagonist
- Alcohol intake [8]: dose-dependently decreases alcohol intake
- Conditioned place preference, extended CPP paradigm ([9]; 10 mg∙kg^−1 i.p., four drug conditioning sessions, male mice): did not produce CPP nor CPA
- Conditioned place preference, brief CPP paradigm ([9]; 10 mg∙kg^−1 i.p., two drug conditioning sessions, male mice): modest conditioned place aversion
- Block of morphine CPP ([9]; 10 and 30 mg∙kg^−1 i.p. pretreatment, morphine 6 mg∙kg^−1, brief CPP): neither dose blocks morphine CPP
- Ki ([10]; Binding Ki (µM)): 4 µM
- Ki ([10]; Binding pKi): 3.16 µM
- Alcohol consumption ([11]; paynantheine 10 mg∙kg^−1, male δOR KO mice): decreases alcohol consumption in δOR KO mice
- cAMP α ([12]; normalized to U50,488, ref Gutridge et al., 2020): 95 ± 5
- IC50 [12, 21]: 7.43 µM
- cAMP α ([13]; normalized to Leu-enkephalin, ref Gutridge et al., 2020): 64 ± 13
- IC50 [13, 21]: 3.55 µM
- cAMP pIC50 ([13]; ref Gutridge et al., 2020): 5.6 ± 0.2
- Ki [14]: 520 nM

SMILES: CC[C@H]1CN2CC[C@@]3(O)C(=Nc4cccc(OC)c43)[C@@H]2C[C@@H]1/C(=C\OC)C(=O)OC [7OH SPG, 7-Hydroxyspeciogynine]
- IC50 [15]: 2270 nM
- Emax [15, 22]: 76 ± 6%
- Ambulation ([1]; 10 mg∙kg^−1 s.c., data from CPP experiment): did not significantly alter ambulation
- MTD at 10 days [16]: ≥ 10 mg/kg
- Ki [17]: 460 nM
- Block of morphine analgesia ([4]; 10 mg∙kg^−1 s.c., then morphine 6 mg∙kg^−1 s.c. 10 min later): did not produce antinociception (paired, two-tailed t test, t = 0.6193, df = 9, p = 0.5511) or block morphine analgesia
- Antinociception (agonist mode) ([4]; 10 mg∙kg^−1 s.c., male mice): did not produce antinociception
- Seizures ([5]; 10 mg∙kg^−1 s.c., 30 min): nor induce noticeable seizures
- Conditioned place preference, extended protocol ([9]; 10 mg∙kg^−1 s.c., four conditioning sessions, male WT mice): did not develop conditioned place preference
- Ki ([10]; Binding Ki (µM)): 1.63 µM
- IC50 [18]: 610 nM
- Emax [18, 22]: 66 ± 6%
- Ethanol consumption, water consumption, ethanol preference ([19]; 3 mg∙kg^−1 s.c., WT female mice): did not significantly modulate ethanol consumption, water consumption, or ethanol preference
- Δ ethanol intake, males and females pooled ([19]; 3 mg∙kg^−1 s.c., WT male and female mice): significant ethanol modulation effect
- Δ ethanol preference, males and females pooled [19, 23]: significant decrease in ethanol preference
- Δ water consumption, males and females pooled [19, 23]: concomitant increase in water consumption was evident
- Decrease in ethanol consumption ([19]; 10 mg∙kg^−1 s.c., WT mice): 1.2 ± 0.2 g/kg
- Reduction in ethanol consumption ([19]; 10 mg∙kg^−1 s.c., WT mice): 40 ± 7%
- Ethanol preference [19, 24]: corresponding decrease in ethanol preference
- Water consumption [19, 24]: concomitant increase in water consumption
- Alcohol intake ([19]; 7-hydroxyspeciogynine 3 and 10 mg∙kg^−1 s.c., wild-type male mice): reduced alcohol intake in a dose-dependent manner
- Ethanol consumption ([11]; 7-hydroxyspeciogynine 3 mg∙kg^−1 s.c.): lack of effect
- Ethanol consumption ([11]; 7-hydroxyspeciogynine 10 mg∙kg^−1 s.c.): significantly decreased ethanol consumption
- IC50 [20]: 7.71 µM
- Emax [20, 22]: 80 ± 20%
